PubChem BioAssay AID1188 (EPA DSSTox, 2008)
The source made the active and inactive calls.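 How the source made its calls: active means a concentration killing half the fathead minnows in the acute test was determined; inconclusive means some fish died but not half at top dose; inactive means no fish died even at top dose.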

Test system: Fathead minnow (Pimephales promelas) acute toxicity, lethality
Assay: DSSTox (EPAFHM) EPA Fathead Minnow Acute Toxicity
Source text: The EPA Fathead Minnow Acute Toxicity database was generated by the U.S. EPA Mid-Continental Ecology Division (MED) for the purpose of developing an expert system to predict acute toxicity from chemical structure based on mode of action considerations. […] A second valuable aspect of this database, from a QSAR modeling perspective, is the inclusion of general mode-of-action (MOA) classifications of acute toxicity response for individual chemicals derived from study results. MOA assignments are biologically based classifications, allowing definition of chemical similarity based upon biological activity instead of organic chemistry functional class as most commonly employed in QSAR study. MOA classifications should strengthen the scientific basis for construction of individual QSARs. However, it is cautioned that the broad MOA categorizations should not be construed to represent a single molecular mechanism; for example, CNS seizure agents and respiratory inhibitors are known to act through a variety of receptors. The EPA Fathead Minnow database and results have been used by EPA MED to build components of the ASTER prediction system, which incorporates MOA-based QSARs for the prediction of aquatic toxicity of environmental and industrial chemicals. Briefly, MOA classifications for individual chemicals, derived from experiments and provided in the EPA Fathead Minnow database, were used to derive substructural rules for assigning a new chemical to an MOA category based solely on chemical structure. Once a new chemical is assigned to an MOA category on this basis, the logP-based QSAR for that MOA category is applied.
The DSSTox EPAFHM database (available from the DSSTox Source URL) includes information pertaining to organic chemical class assignments (ChemClass_FHM), acute toxicity in fathead minnow (LC50_mg), dose-response assessments (LC50_Ratio, ExcessToxicityIndex), behavioral assessments (FishBehaviorTest), joint toxicity MOA evaluations of mixtures (MOA_MixtureTest), and additional MOA evaluation of fish acute toxicity syndrome (FishAcuteToxSyndrome) in rainbow trout. All of these indicators, to the extent available, were considered in the determination of MOA and, additionally, were used to determine a level of confidence in the MOA assignment for each chemical (MOA_Confidence). […] Activity Score is mapping of LOG10 (1/LC50_mmol) activity values spanning activity range [MIN, MAX] onto Integer 1-100 Activity range, where 100 is highest potency and 1 is lowest. If Activity Outcome is "active": Activity Score = 100 * INTEGER[(log10(1/ LC50_mmol) - MIN)/([…])].

In order of falling Potency:
1. CCOC(N)=O  58800 µM
2. OCCN1CCNCC1  49200 µM
3. OCCNCCO  44800 µM
4. CCOCC  34500 µM
5. C1CCOC1  30000 µM
6. Cc1cocn1  16700 µM
7. NCCCN1CCN(CCCN)CC1  15500 µM
8. COC(C)(C)C  7620 µM
9. N#Cc1ccccn1  6970 µM
10. COC(C)=O  4820 µM
11. ClCCl  3890 µM
12. CCC(C)N (centres undefined)  3760 µM
13. CC(C)C(C)N (centres undefined)  3260 µM
14. Oc1cccnc1Br  2700 µM
15. CCC1(c2ccccc2)C(=O)NC(=O)NC1=O  2080 µM
16. Cc1cccnc1  1550 µM
17. CC(=O)c1ccncc1  1390 µM
18. c1ccncc1  1260 µM
19. OCC(F)(F)F  1190 µM
20. OCCCc1cccnc1  1090 µM
21. CN(C)c1ccccn1  1040 µM
22. Cc1cc(Cl)nc(N)n1  982 µM
23. COc1ccc(OC)cc1  847 µM
24. CN(C)CCCCl  841 µM
25. c1ccc2c(c1)CCO2  680 µM
26. OCCCl  667 µM
27. ClCC(Cl)Cl  612 µM
28. CCc1ccc(N)cc1  602 µM
29. Cc1ccccc1C=O  440 µM
30. ClCCCCCl  406 µM
31. ClCC(Cl)CCl  391 µM
32. Cc1ccccc1C#N  382 µM
33. CC(C)(O)C(Cl)(Cl)Cl  362 µM
34. c1ccccc1  225 µM
35. CC(C)(C)CC(C)(C)N  190 µM
36. CCOc1ccc(C=O)cc1  187 µM
37. CC(=O)Nc1ccccc1O  179 µM
38. CCC(C)C(C)C=O (centres undefined)  140 µM
39. COc1cccc(OC)c1C  133 µM
40. CN(C)N  131 µM
41. COc1ccc(C=O)c(OC)c1  121 µM
42. Nc1ccc([N+](=O)[O-])cc1Cl  116 µM
43. CCN(CC)c1ccccc1  110 µM
44. C1=CC2CCC1C2  106 µM
45. CCc1ccccc1  98.9 µM
46. O=C(c1ccc(Br)cc1)c1cccnc1  77.8 µM
47. Cc1ccc(C)c(O)c1C  60.2 µM
48. c1ccc2ccccc2c1  47.9 µM
49. Oc1ccc(Cl)cc1  47.5 µM
50. Cc1cc(O)ccc1Cl  38.4 µM
51. CCCCOc1ccccc1  38 µM
52. CC(C)CC=O  37.7 µM
53. CCOP(=S)(OCC)Oc1cc(C)nc(C(C)C)n1  30.7 µM
54. CCN(CC)c1ccc(C=O)c(O)c1  27.7 µM
55. C=C(C)C(=O)OCc1ccccc1  26.5 µM
56. CCCCSCCCC  24.5 µM
57. c1ccc(Oc2ccccc2)cc1  23.5 µM
58. CCCCOC(=O)CCC(=O)OCCCC  19.4 µM
59. CCC(C)(C)c1ccc(O)cc1  15.8 µM
60. C#CC(O)CCCC (centres undefined)  15.7 µM
61. CCCCCCCCCN  15 µM
62. c1cc2c3c(cccc3c1)CC2  11.2 µM
63. O=Cc1ccccc1F  10.9 µM
64. CCOC(=O)CCCCCCCCC(=O)OCC  10.5 µM
65. C=CC(=O)OC1CCCCC1  9.6 µM
66. C=CC(C)(O)CC/C=C(\C)CCC=C(C)C (centres undefined)  6.43 µM
67. O=Cc1c(F)c(F)c(F)c(F)c1F  5.61 µM
68. CCCCOC(=O)c1cccc(C(=O)OCCCC)c1  3.23 µM
69. OC(c1ccc(Cl)cc1)(c1ccc(Cl)cc1)C(Cl)(Cl)Cl  1.67 µM
70. CC(C)(C)c1ccc(Oc2cccc(C=O)c2)cc1  1.45 µM
71. CCCCCCCCCCCN  1.23 µM
72. O=[N+]([O-])c1cc([N+](=O)[O-])c(Cl)cc1Cl  0.192 µM

With `Cc1cccc(OP(=O)(Oc2cccc(C)c2C)Oc2cccc(C)c2C)c1C` the outcome was “inactive; moa not determined either due to lack of toxicity at saturation or late test res”.
`Cc1ccc([N+](=O)[O-])c(OP(=O)(Oc2cc(C)ccc2[N+](=O)[O-])Oc2cc(C)ccc2[N+](=O)[O-])c1` was tested, and the outcome was “inactive; moa not determined either due to lack of toxicity at saturation or late test res”.
